Experimental data from patent publication US10544143B2, “4-azaindole compounds” (BRISTOL-MYERS SQUIBB COMPANY, priority 2017, dated 2020).

Columns and labels:
[1] = biological target: human TLR7 (Homo sapiens (Human), UniProt Q9NYK1); test: TLR7 inhibition reporter assay (HEK-Blue SEAP); type: cell-based; conditions: HEK-Blue human TLR7 cells, gardiquimod 7.5 μM
[2] = biological target: human TLR8 (Homo sapiens (Human), UniProt Q9NR97); test: TLR8 inhibition reporter assay (HEK-Blue SEAP); conditions: read-out: TLR8 IC50; HEK-Blue human TLR8 cells, R848 15.9 μM;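 further: SEAP driven by IFN-β minimal promoter carrying NF-κB and AP-1 sites, compounds dosed 0.05 nM to 50 µM for 22 h, inhibition scaled between agonist-plus-DMSO and reference-inhibitor wells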
[3] = biological target: human TLR9 (Homo sapiens (Human), UniProt Q9NR96); test: TLR9 inhibition reporter assay (HEK-Blue SEAP); conditions: read-out: TLR9 IC50; HEK-Blue human TLR9 cells, ODN2006 5 nM;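 further: SEAP driven by an IFN-β minimal promoter with NF-κB and AP-1 sites, read after 22 h, compounds dosed 0.05 nM–50 µM, inhibition scaled between agonist plus DMSO and reference-inhibitor wells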
Sequence of human TLR9 (Q9NR96 26-1032): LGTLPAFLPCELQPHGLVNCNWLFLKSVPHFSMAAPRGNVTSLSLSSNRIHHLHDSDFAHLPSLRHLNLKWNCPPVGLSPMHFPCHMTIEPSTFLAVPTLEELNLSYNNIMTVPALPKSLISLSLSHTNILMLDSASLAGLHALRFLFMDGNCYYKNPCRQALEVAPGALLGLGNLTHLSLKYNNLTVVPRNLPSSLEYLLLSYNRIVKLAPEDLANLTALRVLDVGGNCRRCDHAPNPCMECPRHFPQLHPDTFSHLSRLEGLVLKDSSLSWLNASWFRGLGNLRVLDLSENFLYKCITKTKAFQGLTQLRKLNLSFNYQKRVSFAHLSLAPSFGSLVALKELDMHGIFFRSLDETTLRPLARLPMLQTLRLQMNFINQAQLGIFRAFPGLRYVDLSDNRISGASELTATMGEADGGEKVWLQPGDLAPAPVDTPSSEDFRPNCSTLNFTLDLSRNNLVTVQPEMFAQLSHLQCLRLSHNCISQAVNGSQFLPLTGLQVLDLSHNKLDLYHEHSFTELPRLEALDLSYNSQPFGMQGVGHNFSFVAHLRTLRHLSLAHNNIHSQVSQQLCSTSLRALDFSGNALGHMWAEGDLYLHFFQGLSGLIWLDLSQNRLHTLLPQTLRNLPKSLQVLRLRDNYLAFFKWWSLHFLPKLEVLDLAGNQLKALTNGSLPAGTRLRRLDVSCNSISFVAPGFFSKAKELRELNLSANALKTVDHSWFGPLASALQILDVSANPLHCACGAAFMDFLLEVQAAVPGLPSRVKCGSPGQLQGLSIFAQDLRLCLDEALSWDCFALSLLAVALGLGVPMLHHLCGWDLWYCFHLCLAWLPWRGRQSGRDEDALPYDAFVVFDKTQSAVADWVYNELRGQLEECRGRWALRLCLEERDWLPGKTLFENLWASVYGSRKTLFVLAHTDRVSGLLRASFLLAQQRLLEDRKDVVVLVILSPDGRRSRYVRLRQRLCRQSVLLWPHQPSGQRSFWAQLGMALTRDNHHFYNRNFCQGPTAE
Protocol: HEK-Blue™-cells (Invivogen) overexpressing human TLR7, TLR8 or TLR9 receptors were used for screening inhibitors of these receptors using an inducible SEAP (secreted embryonic alkaline phosphatase) reporter gene under the control of the IFN-β minimal promoter fused to five NF-κB and AP-1-binding sites. Briefly, cells are seeded into Greiner 384 well plates (15000 cells per well for TLR7, 20,000 for TLR8 and 25,000 for TLR9) and then treated with test compounds in DMSO to yield a final dose response concentration range of 0.05 nM-50 μM. After a 30 minute compound pre-treatment at room temperature, the cells are then stimulated with a TLR7 ligand (gardiquimod at a final concentration of 7.5 μM), TLR8 ligand (R848 at a final concentration of 15.9 μM) or TLR9 ligand (ODN2006 at a final concentration of 5 nM) to activate NF-κB and AP-1 which induce the production of SEAP. After a 22 hour incubation at 37° C., 5% CO2, SEAP levels are determined with the addition of HEK-Blue™ Detection reagent (Invivogen), a cell culture medium that allows for detection of SEAP, according to manufacturer's specifications.

Sequence of human TLR7 (Q9NYK1 27-1049): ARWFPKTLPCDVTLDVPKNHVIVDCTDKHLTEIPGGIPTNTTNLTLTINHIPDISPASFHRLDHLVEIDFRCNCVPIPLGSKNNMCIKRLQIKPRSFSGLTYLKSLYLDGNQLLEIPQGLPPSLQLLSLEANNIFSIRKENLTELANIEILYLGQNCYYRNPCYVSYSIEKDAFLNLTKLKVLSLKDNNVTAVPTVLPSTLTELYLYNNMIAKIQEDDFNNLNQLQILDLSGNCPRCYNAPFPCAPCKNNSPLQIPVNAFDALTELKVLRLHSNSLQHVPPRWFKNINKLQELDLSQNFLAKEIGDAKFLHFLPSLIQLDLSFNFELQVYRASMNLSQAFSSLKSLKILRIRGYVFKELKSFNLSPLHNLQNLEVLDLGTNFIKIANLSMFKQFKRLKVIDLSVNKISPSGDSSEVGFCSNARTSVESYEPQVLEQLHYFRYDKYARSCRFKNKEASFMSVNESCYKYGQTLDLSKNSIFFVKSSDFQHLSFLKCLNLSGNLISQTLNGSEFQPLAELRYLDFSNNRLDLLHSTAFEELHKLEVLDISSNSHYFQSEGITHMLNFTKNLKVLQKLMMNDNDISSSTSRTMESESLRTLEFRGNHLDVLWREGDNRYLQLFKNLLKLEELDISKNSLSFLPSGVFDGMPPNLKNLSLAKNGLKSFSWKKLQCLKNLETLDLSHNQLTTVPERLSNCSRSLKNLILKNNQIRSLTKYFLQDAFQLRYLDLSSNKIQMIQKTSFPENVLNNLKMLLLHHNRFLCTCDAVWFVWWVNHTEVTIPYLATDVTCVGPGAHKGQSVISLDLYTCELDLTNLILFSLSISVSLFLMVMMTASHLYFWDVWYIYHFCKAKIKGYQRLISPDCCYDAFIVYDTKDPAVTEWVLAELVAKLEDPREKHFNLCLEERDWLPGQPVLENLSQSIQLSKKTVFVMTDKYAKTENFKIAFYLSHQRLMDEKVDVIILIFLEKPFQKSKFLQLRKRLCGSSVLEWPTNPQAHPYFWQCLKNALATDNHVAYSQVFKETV
Sequence of human TLR8 (Q9NR97 27-1041): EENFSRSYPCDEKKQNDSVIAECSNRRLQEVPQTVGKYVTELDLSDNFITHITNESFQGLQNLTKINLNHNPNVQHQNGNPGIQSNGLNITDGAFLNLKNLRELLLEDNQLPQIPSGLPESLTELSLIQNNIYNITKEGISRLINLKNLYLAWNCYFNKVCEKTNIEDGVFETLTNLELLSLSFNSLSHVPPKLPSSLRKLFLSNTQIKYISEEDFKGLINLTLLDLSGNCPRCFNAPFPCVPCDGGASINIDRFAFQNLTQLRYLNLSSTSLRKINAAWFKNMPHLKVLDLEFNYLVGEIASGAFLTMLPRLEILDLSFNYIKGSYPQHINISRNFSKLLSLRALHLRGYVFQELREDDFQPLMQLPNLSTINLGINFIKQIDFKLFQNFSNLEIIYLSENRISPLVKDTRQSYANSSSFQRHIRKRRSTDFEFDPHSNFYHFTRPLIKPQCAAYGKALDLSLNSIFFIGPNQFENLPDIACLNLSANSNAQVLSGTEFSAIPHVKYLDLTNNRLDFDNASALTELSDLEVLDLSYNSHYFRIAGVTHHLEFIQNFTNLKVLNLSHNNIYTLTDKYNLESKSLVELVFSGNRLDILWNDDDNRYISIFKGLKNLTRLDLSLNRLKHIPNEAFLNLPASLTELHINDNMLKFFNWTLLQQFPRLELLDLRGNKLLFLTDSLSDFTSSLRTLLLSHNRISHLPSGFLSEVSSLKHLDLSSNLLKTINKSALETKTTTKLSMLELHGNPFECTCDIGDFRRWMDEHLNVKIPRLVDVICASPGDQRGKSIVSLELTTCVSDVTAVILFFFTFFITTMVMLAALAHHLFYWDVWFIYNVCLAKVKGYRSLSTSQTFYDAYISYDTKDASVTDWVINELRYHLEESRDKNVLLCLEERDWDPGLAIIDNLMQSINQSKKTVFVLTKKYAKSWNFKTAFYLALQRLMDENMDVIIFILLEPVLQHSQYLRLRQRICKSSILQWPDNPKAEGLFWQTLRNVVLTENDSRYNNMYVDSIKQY

IC50 [1] [nM]	IC50 [2] [nM]	IC50 [3] [nM]	SMILES
3.6	4.7	2430	Cc1c(-c2[nH]c3ccc(N4CC5(CN(CC(C)(C)C)C5)C4)nc3c2C(C)C)cn2ncnc2c1C [Example 1010]
11	22	23700	Cc1c(-c2[nH]c3ccc(N4CC5(C4)CN(C4COC4)C5)nc3c2C(C)C)cn2ncnc2c1C [Example 1011]
0.59	1.4	1690	Cc1c(-c2[nH]c3ccc(N4CC5(C4)CN(C4CCOCC4)C5)nc3c2C(C)C)cn2ncnc2c1C [Example 1012]
11	9.2	7680	COCCN1CC2(C1)CN(c1ccc3[nH]c(-c4cn5ncnc5c(C)c4C)c(C(C)C)c3n1)C2 [Example 1013]
21	26	21900	Cc1c(-c2[nH]c3ccc(N4CC5(CN(CCC#N)C5)C4)nc3c2C(C)C)cn2ncnc2c1C [Example 1014]
1.3	7.8	2380	CCCN1CC2(C1)CN(c1ccc3[nH]c(-c4cn5ncnc5c(C)c4C)c(C(C)C)c3n1)C2 [Example 1015]
2.9	38	641	COc1cc(-c2[nH]c3ccc(N4CC5(CNC5)C4)nc3c2C(C)C)cn2ncnc12 [Example 1016]
1.3	16	3300	COc1cc(-c2[nH]c3ccc(N4CC5(CN(C)C5)C4)nc3c2C(C)C)cn2ncnc12 [Example 1017]
1.7	8.9	2780	CCN1CC2(C1)CN(c1ccc3[nH]c(-c4cc(OC)c5ncnn5c4)c(C(C)C)c3n1)C2 [Example 1018]
1.7	16	3280	CCCN1CC2(C1)CN(c1ccc3[nH]c(-c4cc(OC)c5ncnn5c4)c(C(C)C)c3n1)C2 [Example 1019]
1.8	17	3860	COc1cc(-c2[nH]c3ccc(N4CC5(C4)CN(C(C)C)C5)nc3c2C(C)C)cn2ncnc12 [Example 1020]
4.3	11	5330	COc1cc(-c2[nH]c3ccc(N4CC5(CN(CC(C)(C)O)C5)C4)nc3c2C(C)C)cn2ncnc12 [Example 1021]
1.8	1.2	4540	Cc1c(-c2[nH]c3ccc(C4CC5(C4)CN(C4CCOCC4)C5)nc3c2C(C)C)cn2ncnc2c1C [Example 1024]
3	0.86	5860	Cc1c(-c2[nH]c3ccc(C4CC5(C4)CN(CC4(C)COC4)C5)nc3c2C(C)C)cn2ncnc2c1C [Example 1025]
4.5	6.3	14500	Cc1c(-c2[nH]c3ccc(C4CC5(C4)CN(CCS(C)(=O)=O)C5)nc3c2C(C)C)cn2ncnc2c1C [Example 1026]
7.6	2.1	17000	Cc1c(-c2[nH]c3ccc(C4CC5(C4)CN(CC(C)(C)O)C5)nc3c2C(C)C)cn2ncnc2c1C [Example 1028]

Second part, the compound before the results:

SMILES	IC50 [1] [nM]	IC50 [2] [nM]	IC50 [3] [nM]
Cc1c(-c2[nH]c3ccc(N4CC5CCC(C4)N5)nc3c2C(C)C)cn2ncnc2c1C [Example 973]	6.7	1.7	15800
Cc1c(-c2[nH]c3ccc(N4C[C@H]5CCC[C@H](C4)N5)nc3c2C(C)C)cn2ncnc2c1C [Example 974]	1.1	0.71	3920
Cc1c(-c2[nH]c3ccc(N4C[C@@H](C)N[C@@H](C)C4)nc3c2C(C)C)cn2ncnc2c1C [Example 976]	2.5	0.96	13400
Cc1c(-c2[nH]c3ccc(N4CCNC(C)C4C)nc3c2C(C)C)cn2ncnc2c1C (stereo not drawn) [Example 977]	1.4	2.1	8600
Cc1c(-c2[nH]c3ccc(N4C5CNCC4C5)nc3c2C(C)C)cn2ncnc2c1C [Example 978]	11	1.8	11500
Cc1c(-c2[nH]c3ccc(N4[C@@H]5CC[C@H]4CNC5)nc3c2C(C)C)cn2ncnc2c1C [Example 979]	1.1	0.8	4290
Cc1c(-c2[nH]c3ccc(N4C[C@H]5CC[C@@H]4CN5)nc3c2C(C)C)cn2ncnc2c1C [Example 980]	2.2	2.3	6270
Cc1c(-c2[nH]c3ccc(N4C[C@H]5C[C@@H]4CN5)nc3c2C(C)C)cn2ncnc2c1C [Example 981]	0.95	0.51	3070
Cc1c(-c2[nH]c3ccc(N4CCNCC45CC5)nc3c2C(C)C)cn2ncnc2c1C [Example 982]	9.8	20	32800
Cc1c(-c2[nH]c3ccc(N4CCN[C@@H](C(C)C)C4)nc3c2C(C)C)cn2ncnc2c1C [Example 983]	0.82	0.12	6520
Cc1c(-c2[nH]c3ccc(N4C[C@@H]5CC4CN5)nc3c2C(C)C)cn2ncnc2c1C [Example 984]	1	0.85	3430
Cc1c(-c2[nH]c3ccc(N4C[C@H]5C[C@@H](C4)N5)nc3c2C(C)C)cn2ncnc2c1C [Example 985]	1.6	1.1	3900
CCC[C@H]1CNCCN1c1ccc2[nH]c(-c3cn4ncnc4c(C)c3C)c(C(C)C)c2n1 [Example 986]	0.63	0.38	2820
Cc1c(-c2[nH]c3ccc(N4CCN[C@H](CO)C4)nc3c2C(C)C)cn2ncnc2c1C [Example 987]	2.9	0.5	11300
CC[C@H]1CNCCN1c1ccc2[nH]c(-c3cn4ncnc4c(C)c3C)c(C(C)C)c2n1 [Example 988]	0.36	0.23	3770
Cc1c(-c2[nH]c3ccc(N4CCN[C@@H](C)C4)nc3c2C(C)C)cn2ncnc2c1C [Example 989]	0.69	0.31	7100
Cc1c(-c2[nH]c3ccc(N4C[C@H](C)NC[C@H]4C)nc3c2C(C)C)cn2ncnc2c1C [Example 990]	0.8	4	6020
Cc1c(-c2[nH]c3ccc(N4C[C@H](C)NC[C@@H]4C)nc3c2C(C)C)cn2ncnc2c1C [Example 991]	0.27	0.32	5990

SMILES	IC50 [1] [nM]	IC50 [2] [nM]	IC50 [3] [nM]
Cc1c(-c2[nH]c3ccc(N4CCNC[C@@H]4C(C)C)nc3c2C(C)C)cn2ncnc2c1C [Example 992]	0.66	0.72	6310
Cc1c(-c2[nH]c3ccc(N4C[C@@H](C)NC[C@H]4C)nc3c2C(C)C)cn2ncnc2c1C [Example 993]	0.82	1.5	7230
Cc1c(-c2[nH]c3ccc(N4CCN[C@H](CO)C4)nc3c2C(C)C)cn2ncnc2c1C [Example 994]	13	3.4	11800
CNC1CCN(c2ccc3[nH]c(-c4cn5ncnc5c(C)c4C)c(C(C)C)c3n2)CC1 [Example 995]	0.56	0.48	7020
Cc1c(-c2[nH]c3ccc(N4CCC(N(C)CC5(C)COC5)CC4)nc3c2C(C)C)cn2ncnc2c1C [Example 996]	1.3	0.4	11000
Cc1c(-c2[nH]c3ccc(N4CCC(N(C)CC(=O)N(C)C)CC4)nc3c2C(C)C)cn2ncnc2c1C [Example 997]	2.4	2.4	13600
Cc1c(-c2[nH]c3ccc(N4CCC(N(C)CCS(C)(=O)=O)CC4)nc3c2C(C)C)cn2ncnc2c1C [Example 998]	1.9	0.44	20000
Cc1c(-c2[nH]c3ccc(N4CC(NC(C)C)C4)nc3c2C(C)C)cn2ncnc2c1C [Example 999]	7.5	2.1	10500
COCCNC1CN(c2ccc3[nH]c(-c4cn5ncnc5c(C)c4C)c(C(C)C)c3n2)C1 [Example 1000]	18	3.2	6440
Cc1c(-c2[nH]c3ccc(NCCN)nc3c2C(C)C)cn2ncnc2c1C [Example 1001]	70	40	11700
Cc1c(-c2[nH]c3ccc(NCCNC(=O)CN(C)C)nc3c2C(C)C)cn2ncnc2c1C [Example 1002]	10	4.6	1100
Cc1c(-c2[nH]c3ccc(N4CC5(C4)CN(C(C)C)C5)nc3c2C(C)C)cn2ncnc2c1C [Example 1003]	1.8	3.7	3160
Cc1c(-c2[nH]c3ccc(N4CC5(CN(CC(C)(C)O)C5)C4)nc3c2C(C)C)cn2ncnc2c1C [Example 1004]	2.1	1.3	2790
Cc1c(-c2[nH]c3ccc(N4CC5(CN(CCC(N)=O)C5)C4)nc3c2C(C)C)cn2ncnc2c1C [Example 1005]	4.4	7.4	1660
Cc1c(-c2[nH]c3ccc(N4CC5(CN(C(=O)CCN(C)C)C5)C4)nc3c2C(C)C)cn2ncnc2c1C [Example 1006]	3.6	9.6	339
Cc1c(-c2[nH]c3ccc(N4CC5(CN(CCCS(C)(=O)=O)C5)C4)nc3c2C(C)C)cn2ncnc2c1C [Example 1007]	3.2	4	2340
Cc1c(-c2[nH]c3ccc(N4CC5(CN(CC#N)C5)C4)nc3c2C(C)C)cn2ncnc2c1C [Example 1008]	15	32	13300
Cc1c(-c2[nH]c3ccc(N4CC5(CN(CC(C)C)C5)C4)nc3c2C(C)C)cn2ncnc2c1C [Example 1009]	4.5	7.7	2660
